In patent US12239623B2, “Sleep-improving compositions and methods of use” (priority 2023, dated 2025):

Experiments:
Type in all cases: in vivo
male BALB/c mice [1] = assay: EEG amplitude and frequency in caffeine-treated mice (Example 1); conditions: caffeine 7.5 mg/kg, compositions in combination with caffeine
Protocol: (§1) Five male BALB/c mice per treatment arm (age: 8 weeks; weight: […]) were housed in a controlled environment with a 12:12-h light-dark cycle at 22° C. and were provided with mice chow and water ad libitum. The mice were fasted for 24 hours prior to the study, which was conducted between 1 pm and 5 pm and under the National Institutes of Health's Guidelines for the Care and Use of Laboratory Animals and approved by the Ethics Committee of the Medipol University. The mice were divided into eight groups and anesthetized with urethane (1.25 g/kg, i.p.; Sigma U2500) and carefully placed in a stereotaxic frame. Rectal temperatures were maintained between 36.5° C. and 37.0° C. using a feedback-controlled-heating system (507221F, Harvard Apparatus, ABD). Lidocaine (2.0%) was applied on the incision area to prevent any occurrence of pain. A midline incision was made on the skin along the sagittal suture of the skull. A part of the cranium overlying the left parietal cortex was removed using a dental drill. […]
(§2) After the administration, the mice were placed in individual cages and subjected to measurements of sleep latency and duration. Brain electrical activity were monitored and recorded for a total of 2 hours. […]

GABAB receptor 1 = assay: Western blot of brain GABAB receptor 1 in caffeine-treated mice (Example 1); conditions: FIG. 1B, male BALB/c mice brain, reduced from 100%, caffeine 7.5 mg/kg i.p., combos given together with caffeine, after two hours
Protocol: as §1, with “drill. Ag—AgCl ball electrodes were placed on the left somatomotor cortex (1 mm anterior/1.5 mm lateral from bregma; 3 mm posterior/1.5 mm lateral from bregma) and the reference electrode was attached to the left foot for an ECoG recording. Group 1 were treated with saline. To induce sleep disturbance, 7.5 mg/kg caffeine was injected intraperitoneally at minute 15 of recordings to groups 2-8.” for “drill.”

GluN1 = assay: Western blot of brain GluN1 in caffeine-treated mice (Example 1); conditions: FIG. 1E, male BALB/c mice brain, reduced from 100%, caffeine 7.5 mg/kg i.p., combos given together with caffeine, after two hours
Protocol: as §1, with “drill. Ag—AgCl ball electrodes were placed on the left somatomotor cortex (1 mm anterior/1.5 mm lateral from bregma; 3 mm posterior/1.5 mm lateral from bregma) and the reference electrode was attached to the left foot for an ECoG recording. Group 1 were treated with saline. To induce sleep disturbance, 7.5 mg/kg caffeine was injected intraperitoneally at minute 15 of recordings to groups 2-8.” for “drill.”

male mice = assay: Serum melatonin by ELISA in male mice (Example 3); conditions: FIG. 3, saline control about 33 pg/ml, caffeine 7.5 mg/kg, composition given with caffeine
Protocol: (§3) Both OVX female mice and male mice were divided into three groups: group treated with saline, group treated with 7.5 mg/kg caffeine, and group treated with a combination of 7.5 mg/kg caffeine and the magnesium glycinate, L-theanine, GABA, SAMe and propyl gallate composition. […] Levels of serum melatonin were measured by ELISA kits.

GluA1 = assay: Western blot of brain GluA1 in caffeine-treated mice (Example 1); conditions: FIG. 1D, male BALB/c mice brain, reduced from 100%, caffeine 7.5 mg/kg i.p., combos given together with caffeine, after two hours
Protocol: as §1, with “drill. Ag—AgCl ball electrodes were placed on the left somatomotor cortex (1 mm anterior/1.5 mm lateral from bregma; 3 mm posterior/1.5 mm lateral from bregma) and the reference electrode was attached to the left foot for an ECoG recording. Group 1 were treated with saline. To induce sleep disturbance, 7.5 mg/kg caffeine was injected intraperitoneally at minute 15 of recordings to groups 2-8.” for “drill.”

GABAA receptor 2 = assay: Western blot of brain GABAA receptor 2 in caffeine-treated mice (Example 1); conditions: FIG. 1A, male BALB/c mice brain, reduced from 100%, caffeine 7.5 mg/kg i.p., combos given together with caffeine, after two hours
Protocol: as §1, with “drill. Ag—AgCl ball electrodes were placed on the left somatomotor cortex (1 mm anterior/1.5 mm lateral from bregma; 3 mm posterior/1.5 mm lateral from bregma) and the reference electrode was attached to the left foot for an ECoG recording. Group 1 were treated with saline. To induce sleep disturbance, 7.5 mg/kg caffeine was injected intraperitoneally at minute 15 of recordings to groups 2-8.” for “drill.”

GABAB receptor 2 = assay: Western blot of brain GABAB receptor 2 in caffeine-treated mice (Example 1); conditions: FIG. 1C, male BALB/c mice brain, reduced from 100%, caffeine 7.5 mg/kg i.p., combos given together with caffeine, after two hours
Protocol: as §1, with “drill. Ag—AgCl ball electrodes were placed on the left somatomotor cortex (1 mm anterior/1.5 mm lateral from bregma; 3 mm posterior/1.5 mm lateral from bregma) and the reference electrode was attached to the left foot for an ECoG recording. Group 1 were treated with saline. To induce sleep disturbance, 7.5 mg/kg caffeine was injected intraperitoneally at minute 15 of recordings to groups 2-8.” for “drill.”

GluN2A = assay: Western blot of brain GluN2A in caffeine-treated mice (Example 1); conditions: FIG. 1F, male BALB/c mice brain, reduced from 100%, caffeine 7.5 mg/kg i.p., combos given together with caffeine, after two hours
Protocol: as §1, with “drill. Ag—AgCl ball electrodes were placed on the left somatomotor cortex (1 mm anterior/1.5 mm lateral from bregma; 3 mm posterior/1.5 mm lateral from bregma) and the reference electrode was attached to the left foot for an ECoG recording. Group 1 were treated with saline. To induce sleep disturbance, 7.5 mg/kg caffeine was injected intraperitoneally at minute 15 of recordings to groups 2-8.” for “drill.”

5-HT1A = assay: Western blot of brain 5-HT1A in caffeine-treated mice (Example 1); conditions: FIG. 1G, male BALB/c mice brain, reduced from 100%, caffeine 7.5 mg/kg i.p., combos given together with caffeine, after two hours
Protocol: as §1, with “drill. Ag—AgCl ball electrodes were placed on the left somatomotor cortex (1 mm anterior/1.5 mm lateral from bregma; 3 mm posterior/1.5 mm lateral from bregma) and the reference electrode was attached to the left foot for an ECoG recording. Group 1 were treated with saline. To induce sleep disturbance, 7.5 mg/kg caffeine was injected intraperitoneally at minute 15 of recordings to groups 2-8.” for “drill.”

OVX female mice = assay: Serum melatonin by ELISA in OVX female mice (Example 3); conditions: FIG. 3, saline control about 11 pg/ml, caffeine 7.5 mg/kg, composition given with caffeine
Protocol: as §3

male BALB/c mice [2] = assay: Sleep duration and sleep latency in mice (Example 1); conditions: pentobarbital 42 mg/kg, combos together with caffeine
Protocol: as §1, §2

Structure (SMILES) | EEG amplitude (male BALB/c mice [1]; FIG. 1H, from about 100 mV, within 75 minutes) | EEG frequency (male BALB/c mice [1]; FIG. 1I, from about 100 spikes, in 90 minutes) | percentage of GABAB receptor 1 (GABAB receptor 1) | percentage of GluN1 receptor (GluN1) | melatonin level (male mice) | percentage of GluA1 receptor (GluA1) | percentage of GABAA receptor 2 (GABAA receptor 2) | percentage of GABAB receptor 2 (GABAB receptor 2) | percentage of GluN2A receptor (GluN2A) | percentage of 5-HT1A receptor (5-HT1A) | melatonin level (OVX female mice) | sleep duration (male BALB/c mice [2]; FIG. 1J) | sleep latency (male BALB/c mice [2]; FIG. 1K)
Cn1c(=O)c2c(ncn2C)n(C)c1=O [caffeine] | about 70 mV | about 200 spikes | about 18% | about 35% | about 12 pg/ml | about 26% | about 25% | about 28% | about 20% | about 20% | about 8 pg/ml | – | –
CCCC(C)C1(CC)C(=O)NC(=O)NC1=O (stereo not shown) [pentobarbital] | – | – | – | – | – | – | – | – | – | – | – | about 50 minutes | about 2 minutes
